The results in this text go back to ChEMBL document CHEMBL1159097, “Synthesis and structural and pharmacological properties of cyclopropane-based conformationally restricted analogs of 4-methylhistamine as histamine H3/H4 receptor ligands” (Bioorg Med Chem, 2010).

SMILES strings stand for the structures.

The target in one test is Histamine H4 receptor (Homo sapiens, UniProt Q9H3N8). Description: Displacement of [3H]histamine from human histamine H4 receptor. In general terms: Loss of bound radioactivity is the signal in a displacement assay; it reports binding, not function.
Sequence of Histamine H4 receptor (Q9H3N8 whole entry): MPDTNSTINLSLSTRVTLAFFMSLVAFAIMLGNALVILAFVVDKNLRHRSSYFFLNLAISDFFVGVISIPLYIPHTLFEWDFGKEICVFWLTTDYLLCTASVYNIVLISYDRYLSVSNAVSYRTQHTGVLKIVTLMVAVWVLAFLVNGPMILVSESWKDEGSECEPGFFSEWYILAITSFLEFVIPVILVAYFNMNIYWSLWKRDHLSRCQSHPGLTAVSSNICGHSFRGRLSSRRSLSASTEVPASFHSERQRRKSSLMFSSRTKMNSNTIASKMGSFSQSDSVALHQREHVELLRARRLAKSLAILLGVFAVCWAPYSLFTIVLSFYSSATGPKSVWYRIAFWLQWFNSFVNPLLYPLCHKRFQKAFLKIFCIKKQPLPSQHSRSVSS
Test [1] has as its target T1, Histamine H3 receptor (Homo sapiens, UniProt Q9Y5N1). Description: Displacement of [3H]Nalpha-methylahistamine from human histamine H3 receptor.
Test [2] deals with T1, Histamine H3 receptor. Kind of test: Binding affinity to histamine H3 receptor.

As a reminder, the Ki is the dissociation constant of the complex between target and ligand, obtained from inhibition or displacement. A lower Ki goes with a stronger hold on the target.

T1 sequence (Q9Y5N1 whole entry): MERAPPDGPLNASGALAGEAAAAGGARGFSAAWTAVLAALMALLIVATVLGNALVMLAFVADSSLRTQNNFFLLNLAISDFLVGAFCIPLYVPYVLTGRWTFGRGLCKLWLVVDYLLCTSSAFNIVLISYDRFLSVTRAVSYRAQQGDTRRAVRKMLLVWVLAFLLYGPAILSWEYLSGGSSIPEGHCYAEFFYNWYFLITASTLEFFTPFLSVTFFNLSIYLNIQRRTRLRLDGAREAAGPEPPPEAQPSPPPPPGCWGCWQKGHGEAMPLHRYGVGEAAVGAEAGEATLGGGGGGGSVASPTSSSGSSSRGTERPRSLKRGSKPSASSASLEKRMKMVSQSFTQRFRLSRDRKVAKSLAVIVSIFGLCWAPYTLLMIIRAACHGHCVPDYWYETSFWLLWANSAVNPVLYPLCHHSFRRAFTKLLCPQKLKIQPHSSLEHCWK

Turning to `Cc1nc[nH]c1[C@@H]1C[C@H]1CCNCc1ccc(Cl)cc1`, the Ki on Histamine H4 receptor was found to be 148 nM; at Histamine H3 receptor [1], 38.7 nM.

Compound `NCC[C@@H]1C[C@@H]1c1cnc[nH]1` had a Ki at Histamine H3 receptor [2] of 1.3 nM.

`Cc1[nH]cnc1[C@@H]1C[C@H]1CNCc1ccc(Cl)cc1`: the inhibition constant (Ki) on Histamine H4 receptor and on Histamine H3 receptor [1] was greater than 1000 nM each time.
